Reference: patent US12011475B2, “Polypeptide, polypeptide fragment, derivative thereof, and applications thereof” (CHENGDU HUITAI BIOMEDICINE CO., LTD., priority 2017, dated 2024)
Ends that are not written are not given here.

Assays:
Format in all cases: in vivo
[1] = test system: rat with pulmonary fibrosis induced by bleomycin; assay: HE staining score, intratracheal instillation (Example 18); conditions: inflammatory pathology score, grade 0 to 3, 8 mg/kg peptide + 4 mg/kg bleomycin, Mean ± SEM
Text: (§1) The lung tissue of the rats of Example 2 was taken, fixed with 4% paraformaldehyde and embedded in paraffin. The wax block embedded the lung tissue was sectioned along the largest cross section. Pathological changes in lung tissue were observed using hematoxylin-eosin (HE) staining. Pathological changes in lung tissue were observed under a light microscope (low magnification) at a magnification of 100 times (the result is shown in FIG. 2).
According to the method provided by Szapie, et al., the degree of alveolitis was graded according to the range of lesions and could be divided into 0 to 3 grades, corresponding to 0 to 3 points. The evaluation indexes for the degree of alveolitis are as follows: grade 0, no alveolitis; grade 1, mild alveolitis, manifested as a slight increase in alveolar septum, infiltration of monocytes, near the pleura or localized, with a lesion range of less than 20% without alveolar structural damage; grade 2, moderate alveolitis, the lesion ranges from 20% to 50%, relatively severe near the pleura; grade 3, severe alveolitis, diffusely distributed, the lesion range is more than 50%, with pulmonary parenchymal lesion occasionally. […]

[2] = test system: rat with pulmonary fibrosis induced by bleomycin; assay: Rat body weight, intravenous injection (Examples 20-21); conditions: Day 14/Day 0; intravenous injection 10 mg/kg once a day, 4th to 13th day after bleomycin 4 mg/kg; Mean ± SEM
Text: The model and the administration route were referred to Example 15. The experimental rats in the control group, the model group, and the treatment groups described in Example 15 were weighted every day from the 1st day until the 14th day. When weighing, the “unstable weighing” of the electronic balance was selected, and an appropriate number of weighing and a degree of tolerable instability during the reading phase were set according to the instructions to weigh and record the readings. The result is shown in the weight ratios in FIG. 2 (Day 14/Day 0).
(§2) The rats were weighed before administration, intramuscularly injected with 65 mg/kg Zoletil anesthetic solution. After the rats entered the stage III anesthesia, the experimental rats were fixated in the lateral decubitus. Gavage needle size 12 was inserted into rat trachea through oral cavity along the glottis to instill sterile saline or bleomycin (4 mg/kg) (Day 0). After the anesthesia, the rats in control group were intratracheally instilled with an equal volume of sterile saline, and the rats in model group and treatment groups were intratracheally instilled with bleomycin (4 mg/kg). On the 4th day, the sterile saline or peptide drug was injected through the tail vein once a day until the 13th day. The rats were sacrificed on the 14th day for subsequent experiments. […]

[3] = test system: rat with pulmonary fibrosis induced by bleomycin; assay: Lung coefficient, intravenous injection (Example 22); conditions: lung mass (mg)/body weight (g); intravenous injection 10 mg/kg once a day, 4th to 13th day after bleomycin 4 mg/kg; Mean ± SEM
Procedure: The rats in Example 2 were weighed and sacrificed by anesthesia overdose. Lung tissue of both sides of the rats was taken, and the connective tissue around the lung tissue was carefully removed. After washing with saline and dried with a filter paper, the wet weight of the whole lung was weighted by an electronic balance. After the wet weight of the whole lung was weighted by the electronic balance, the lung coefficient was calculated according to the formula, lung coefficient=lung mass (mg)/body weight (g) (the result is shown in FIG. 1).
The rats were weighed before administration, intramuscularly injected with 65 mg/kg Zoletil anesthetic solution. After the rats entered the stage III anesthesia, the experimental rats were fixated in the lateral decubitus. Gavage needle size 12 was inserted into rat trachea through oral cavity along the glottis to instill sterile saline or bleomycin (4 mg/kg) (Day 0). After the anesthesia, the rats in control group were intratracheally instilled with an equal volume of sterile saline, and the rats in model group and treatment groups were intratracheally instilled with bleomycin (4 mg/kg). […]
The experimental rats of the control group, the model group and the treatment groups of Example 20 were taken, the lung weight was measured and the lung coefficient was calculated. […]

[4] = test system: rat with pulmonary fibrosis induced by bleomycin; assay: HE staining score, intravenous injection (Example 23); conditions: inflammatory pathology score, grade 0 to 3; intravenous injection 10 mg/kg once a day, 4th to 13th day after bleomycin 4 mg/kg; Mean ± SEM
Text: as §1
According to the method provided by Szapie, et al., the degree of alveolitis was graded according to the range of lesions and could be divided into 0 to 3 grades, corresponding to 0 to 3 points. The evaluation indexes for the degree of alveolitis are as follows: grade 0, no alveolitis; grade 1, mild alveolitis, manifested as a slight increase in alveolar septum, infiltration of monocytes, near the pleura or localized, with a lesion range of less than 20% without alveolar structural damage; grade 2, moderate alveolitis, the lesion ranges from 20% to 50%, relatively severe near the pleura; grade 3, severe alveolitis, diffusely distributed, the lesion range is more than 50%, with pulmonary parenchymal lesion occasionally.
The rats were weighed before administration, intramuscularly injected with 65 mg/kg Zoletil anesthetic solution. After the rats entered the stage III anesthesia, the experimental rats were fixated in the lateral decubitus. […]

[5] = test system: rat with pulmonary fibrosis induced by bleomycin; assay: Hydroxyproline content in rat lung tissue, acid hydrolysis, intravenous injection (Example 25); conditions: intravenous injection 10 mg/kg once a day, 4th to 13th day after bleomycin 4 mg/kg; Mean ± SEM
Procedure: as §2, with “experiments. The rats in the control group were received no drug treatment; the rats in the model group were injected with sterile saline through the tail vein; the rats in the treatment groups were injected with corresponding peptide drug (10 mg/kg) through the tail vein.” for “experiments.”
The lung tissue in the model group, the control group and the treatment groups of Example 20 was taken, and the hydroxyproline content in lung tissue was detected using BioVision Hydroxyproline Acid Hydrolysis Assay Kit (Cat. No. K555-100), the result is shown in the HYP values in Table 4.

[6] = test system: tgf-β; assay: mRNA content of tgf-β in rat lung tissue by qPCR (Example 26); conditions: 18S RNA internal reference; intravenous injection 10 mg/kg once a day, 4th to 13th day after bleomycin 4 mg/kg; Mean ± SEM
Procedure: as §2
The rat lung tissue in the control group, the model group and the treatment groups of Example 20 was taken. […] After obtaining cDNA using reverse transcription, fluorescence quantitative PCR (qPCR) kit (Applied Biosystems, Cat. No. 4319413E) was used to detect the mRNA content of tgf-β (forward primer: GAGGTGACCTGGGCACCAT, reverse primer: GGCCATGAGGAGCAGGAA), 18S RNA was used as an internal reference, and the result is shown in the tgf-β values in Table 4.

For YRVRFLAKENVTQDAEDN [N1], the “HE Score” value [1] was 2.45 ± 0.09, the “Weight Ratio” value [2] was 1.05 ± 0.02 and the “Lung Coefficient” value [3] was 9.25 ± 0.28. For the same sequence, the “HE Score” value [4] was 2.44 ± 0.24, the “HYP (hydroxyproline content in lung tissue)” value [5] was 34.09 ± 5.01 and the “tgf-β (mRNA content of tgf-β in lung tissue)” value [6] was 2.50 ± 0.04.
